Common to all, as to type: binding
One experiment has as its target T1, KDM4A (Homo sapiens, UniProt O75164).
T1 sequence (O75164 1-1064): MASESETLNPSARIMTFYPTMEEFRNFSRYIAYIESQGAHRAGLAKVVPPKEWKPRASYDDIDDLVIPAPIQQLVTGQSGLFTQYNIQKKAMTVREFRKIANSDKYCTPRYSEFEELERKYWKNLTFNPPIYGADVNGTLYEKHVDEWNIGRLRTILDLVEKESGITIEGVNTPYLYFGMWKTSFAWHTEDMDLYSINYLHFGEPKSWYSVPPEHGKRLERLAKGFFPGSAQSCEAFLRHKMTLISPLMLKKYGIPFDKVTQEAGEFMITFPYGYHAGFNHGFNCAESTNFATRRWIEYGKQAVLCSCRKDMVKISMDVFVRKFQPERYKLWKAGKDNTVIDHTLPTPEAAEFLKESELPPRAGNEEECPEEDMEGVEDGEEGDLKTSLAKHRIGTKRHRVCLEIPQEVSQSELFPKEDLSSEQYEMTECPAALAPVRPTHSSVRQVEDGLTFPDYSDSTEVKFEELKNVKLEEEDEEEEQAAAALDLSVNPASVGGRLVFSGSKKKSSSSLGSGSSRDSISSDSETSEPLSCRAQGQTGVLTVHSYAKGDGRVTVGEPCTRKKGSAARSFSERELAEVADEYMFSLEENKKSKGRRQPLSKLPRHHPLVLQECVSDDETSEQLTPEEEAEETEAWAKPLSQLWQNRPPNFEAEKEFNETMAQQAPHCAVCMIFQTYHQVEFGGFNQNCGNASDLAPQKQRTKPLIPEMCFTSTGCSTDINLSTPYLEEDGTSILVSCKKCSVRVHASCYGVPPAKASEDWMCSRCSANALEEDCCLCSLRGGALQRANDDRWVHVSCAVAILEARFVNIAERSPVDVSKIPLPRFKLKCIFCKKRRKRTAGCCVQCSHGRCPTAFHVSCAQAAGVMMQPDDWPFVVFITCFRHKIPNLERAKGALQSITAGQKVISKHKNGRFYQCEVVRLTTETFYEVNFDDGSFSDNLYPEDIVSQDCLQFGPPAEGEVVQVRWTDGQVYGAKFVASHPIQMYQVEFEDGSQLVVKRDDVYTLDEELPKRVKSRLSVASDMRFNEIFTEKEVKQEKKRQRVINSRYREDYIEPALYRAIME
In words: Denaturing MS covalent adduct formation with KDM4A. Particulars: enzyme 20 μM, Fe(II) 30 μM, compound 30 μM, 37 °C, 4 h. An excerpt:
Ligands that covalently modify proteins are used for activity-based profiling by functionalisation with an appropriate handle.[20] […] This method for incorporation of a photoreactive group near the active site of a protein to enable substrate capture is complementary to ‘photoreactive site directed mutagenesis’.[21],[22] Azide 7 was designed for use as a tag to allow ‘click’ conjugation with a handle (e.g. biotin) for activity-based profiling, or as a photoreactive aryl azide for substrate capture. […] There is scope for optimisaiton and broader application of the approach described here. […] Work toward the application of 7 and derivatives in protein profiling and substrate capture in cells is ongoing.
HeLa cells were treated with the […]

The target of another experiment is T2, PHD2_181–414 (Homo sapiens, UniProt Q9GZT9).
T2 construct: 414 (PHD2_181–414) truncated proteins; His6 (N, cleaved yes); made in house; host or cells: bacterial culture (2x TY, kanamycin, IPTG)
In words: Non-denaturing ESI-MS crosslinking, 414 truncate. Particulars: equimolar FeSO4 and compound, 3 h, 37 °C, 200 V. As for the experimental part: (§1) The site of crosslinking of 3 was investigated using protein variants. First, 3 was incubated with C-terminal truncated PHD2 (PHD2_181–402) and a loop deletion variant (deletion of residues 238–250, PHD2Δ). […] Thus, 3 was incubated with PHD2 constructs truncated at residues 402, 410, 414 and 418. […] Crosslinking experiments with PHD2 R411M implied that R411 is not directly involved in crosslinking (Fig. S11, ESI ^†).
(§2) Fig. S8 Temperature dependence of the rate of crosslinking of 3 with PHD2. PHD2 (20 µM) was incubated with equimolar Fe(II) and 3 in buffer (50 mM Tris, 150 mM NaCl, pH 7.5) at 4, 20 and 37 °C. The ratio of crosslinking after 1, 2, and 4 h was determined by ESI-MS under denaturing conditions (n = 2), error bars represent 1 standard deviation.
(§3) Fig. S9 Ratio of crosslinked PHD2.3 before evaluation of catalytic activity. Labelled peaks correspond to: (A): PHD2, […]
(§4) Fig. S10 Non-denaturing ESI-MS analysis of (a) PHD2 and its C-terminal truncations (b) PHD2181-418; (c) PHD2181-414;
(§5) (d) PHD2181-410; (e) PHD2181-402 in the presence of equimolar amounts of FeSO4 and 3 after 3 hours incubation at 37 °C in ammonium acetate (15 mM, pH 7.5) at a sample cone voltage of 200V. Peaks present: (A): PHD2.Fe; (B): PHD2181-

The target in experiment [1] is T3, PHD2 truncated at residue 410 (Homo sapiens, UniProt Q9GZT9).
T3 construct: PHD2 constructs truncated at residues 402, 410, 414 and 418; Both the 418 (PHD2_181–418); His6 (N, cleaved yes); made in house; host or cells: bacterial culture (2x TY, kanamycin, IPTG)
In words: Non-denaturing ESI-MS crosslinking, 410 truncate. Particulars: equimolar FeSO4 and compound, 3 h, 37 °C, 200 V. As for the experimental part:
as §1, §2, §3, §4, §5

The next experiment deals with T4, PHD2 K408I (Homo sapiens, UniProt Q9GZT9, K408I).
T4 construct: PHD2_181–426 (hereafter PHD2); His6 (N, cleaved yes); made in house; host or cells: bacterial culture (2x TY, kanamycin, IPTG); QuikChange mutagenesis
In words: Non-denaturing ESI-MS crosslinking, K408I variant. Particulars: equimolar FeSO4 and compound, 3 h, 37 °C. The source says:
The site of crosslinking was investigated by trypsin digest and LC-MS/MS. The imine adducts formed by 1/2 were fixed by reduction using sodium cyanoborohydride (Fig. S12, ESI ^†). Modified protein samples were digested (trypsin) and analysed by ‘nano LC-MS/MS’.[19] In all 3 samples, modification by the respective inhibitor was identified on the trypsin-derived peptide 403[…]411, and localised to K408 (Fig. 3B and Fig. S13, ESI ^†).
Fig. S11 Non-denaturing ESI-MS data of K408I PHD2 in the presence of equimolar amounts of FeSO4 and the Michael acceptor 3 after 3 hours incubation at 37 °C in ammonium acetate (15 mM, pH 7.5) at a sample cone voltages of (a) 80V or (b) 200V. Non-denaturing ESI-MS data of […] PHD2 in the presence of equimolar amounts of FeSO4 and 3 after 3 hours incubation at 37 °C in ammonium acetate (15 mM, pH 7.5) at a sample cone voltage of (c) 80V or (d) 200V. The peaks observed are consistent with the following complexes: (A): K408I.Fe; (B): non-covalent K408I.Fe.3 complex, (C): covalent K408I.Fe.3 complex; (D): R411M.Fe; (E): covalent R411M.Fe.3 complex.

The structures appear in SMILES notation. Bounds are passed on as bounds.

Results on one compound are retold here after publication PMC6350621, “Small-molecules that covalently react with a human prolyl hydroxylase – towards activity modulation and substrate capture” (Chemical Communications (Cambridge, England), 2018).

T3 sequence (Q9GZT9 181-410): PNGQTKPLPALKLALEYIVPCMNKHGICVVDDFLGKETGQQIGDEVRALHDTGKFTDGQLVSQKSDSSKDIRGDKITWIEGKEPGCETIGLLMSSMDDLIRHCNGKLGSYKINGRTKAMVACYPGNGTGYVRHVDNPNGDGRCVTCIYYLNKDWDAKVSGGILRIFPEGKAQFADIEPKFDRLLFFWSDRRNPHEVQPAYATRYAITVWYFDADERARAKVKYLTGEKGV
T2 sequence (Q9GZT9 181-414): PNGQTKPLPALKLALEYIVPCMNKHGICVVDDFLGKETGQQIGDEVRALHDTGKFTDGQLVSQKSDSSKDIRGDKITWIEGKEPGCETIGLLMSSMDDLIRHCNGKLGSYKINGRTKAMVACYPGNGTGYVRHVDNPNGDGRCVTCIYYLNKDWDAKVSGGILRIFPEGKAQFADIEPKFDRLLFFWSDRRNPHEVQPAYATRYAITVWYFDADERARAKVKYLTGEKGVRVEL
T4 sequence (Q9GZT9 181-426 K408I): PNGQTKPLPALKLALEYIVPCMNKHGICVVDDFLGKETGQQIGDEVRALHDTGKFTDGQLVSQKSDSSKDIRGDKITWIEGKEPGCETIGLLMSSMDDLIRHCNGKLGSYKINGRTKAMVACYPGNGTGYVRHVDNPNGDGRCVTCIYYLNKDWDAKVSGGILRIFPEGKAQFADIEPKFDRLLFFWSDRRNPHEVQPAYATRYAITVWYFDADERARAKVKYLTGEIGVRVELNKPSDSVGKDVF

Take `C=CC(=O)Nc1cccc(C(=O)NCC(=O)O)c1O` [compound 3]: the “covalent reaction with KDM4A” value at KDM4A was “did not accrue evidence”. In addition, the “covalent modification of 414 truncate” value on PHD2_181–414 is listed as “covalently modified”. Besides, in experiment [1], the “crosslinking with 410 truncate” value is “Crosslinking did not occur”. The “apparent covalent modification of PHD2 K408I” value at PHD2 K408I is less than 10%.
